Results reported in patent US11447480B2, “Compound exhibiting enteropeptidase inhibitory activity” (LG CHEM, LTD., priority 2018, dated 2022).
pKi: −log10 of the molar value.

molecular target: Recombinant Human Enteropeptidase (Homo sapiens (Human), UniProt P98073); experiment: Enteropeptidase Inhibition Assay; type: biochemical; details: substrate Acetyl-Asp-Asp-Asp-Asp-Lys-AFC 30 μM, 30° C., 1 hour; Ki calculated from IC50 using Cheng-Prusoff equation
Method: Enteropeptidase Inhibition Assay
The inhibitory activity of the enteropeptidase inhibitor synthesized using the purified Recombinant Human Enteropeptidase and the substrate Acetyl-Asp-Asp-Asp-Asp-Lys-AFC (BioVision) was measured. 7.2 ng/mL of Enteropeptidase diluted with a buffer (20 mM Tris, 50 mM NaCl, pH 7.5) in a 96 well plate (Costar), 30 μM of Acetyl-Asp-Asp-Asp-Asp-Lys-AFC, several concentrations of Enteropeptidase inhibitors (1% DMSO concentration) were dispensed such that a final volume was 100 μL, and then the enzyme reaction was carried out at 30° C. for 1 hour. At this time, 1% DMSO, a substrate and Enteropeptidase instead of the compound were dispensed onto positive control wells, and 1% DMSO and a substrate were dispensed onto negative control wells. The enzyme reaction was […] using an excitation wavelength of 380 nm and an emission wavelength of 500 nm in a fluorescence spectrometer, and then the rate of increase in fluorescence (milli-units per min) between 20 and 60 minutes was measured.
The fluorescence measurement values reduced by the inhibitor diluted at each concentration were converted into relative values % of the positive control group (100% reactivity) and the negative control group (0% reactivity), and used to calculate IC50 values. IC50 is the concentration of the inhibitor that inhibits the enzyme activity by 50%, and was calculated using PRISM (GraphPad). Ki values were calculated from the IC50 values using Cheng-Prusoff equation.

Chain of Recombinant Human Enteropeptidase (P98073 whole entry): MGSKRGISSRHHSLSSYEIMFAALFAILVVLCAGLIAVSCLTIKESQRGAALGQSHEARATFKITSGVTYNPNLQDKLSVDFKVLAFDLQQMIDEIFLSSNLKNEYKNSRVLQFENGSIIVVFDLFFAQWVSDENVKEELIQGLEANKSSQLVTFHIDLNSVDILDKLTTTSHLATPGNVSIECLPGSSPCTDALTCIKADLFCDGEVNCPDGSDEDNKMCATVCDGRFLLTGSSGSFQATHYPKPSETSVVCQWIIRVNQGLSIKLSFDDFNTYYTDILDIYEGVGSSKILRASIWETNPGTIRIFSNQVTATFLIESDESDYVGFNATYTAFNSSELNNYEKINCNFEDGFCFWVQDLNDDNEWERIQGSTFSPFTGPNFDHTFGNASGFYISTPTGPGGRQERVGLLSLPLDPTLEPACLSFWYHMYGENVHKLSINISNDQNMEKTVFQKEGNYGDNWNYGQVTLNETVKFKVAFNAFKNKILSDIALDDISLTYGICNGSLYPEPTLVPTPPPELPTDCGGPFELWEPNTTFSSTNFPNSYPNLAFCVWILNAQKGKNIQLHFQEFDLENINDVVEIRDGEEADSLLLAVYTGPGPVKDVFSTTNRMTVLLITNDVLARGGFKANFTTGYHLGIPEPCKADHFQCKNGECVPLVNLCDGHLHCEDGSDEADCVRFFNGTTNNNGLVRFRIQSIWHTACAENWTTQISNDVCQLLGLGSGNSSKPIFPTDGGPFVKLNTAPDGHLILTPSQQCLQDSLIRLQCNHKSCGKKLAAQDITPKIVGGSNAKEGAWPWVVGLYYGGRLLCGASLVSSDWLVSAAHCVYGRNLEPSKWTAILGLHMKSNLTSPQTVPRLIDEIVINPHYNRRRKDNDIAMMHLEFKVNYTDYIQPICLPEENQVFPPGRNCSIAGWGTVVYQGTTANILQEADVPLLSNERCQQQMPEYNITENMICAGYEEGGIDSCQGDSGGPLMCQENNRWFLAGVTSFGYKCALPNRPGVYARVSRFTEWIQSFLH

Compound | pKi
CN(CCCC(=O)O)C(=O)C1CCN(c2ncc(C(=O)Oc3ccc(C(=N)N)cc3F)s2)CC1 [Example 44, 4-(1-(5-((4-carbamimidoyl-2-fluorophenoxy)carbonyl)thiazol-2-yl)-N-methylpiperidine-4-carboxamido)butanoic Acid] | 8.80
CC(C)(CNC(=O)C1CCN(c2ncc(C(=O)Oc3ccc(C(=N)N)cc3F)s2)CC1)C(=O)O [Example 45, 3-(1-(5-((4-Carbamimidoyl-2-fluorophenoxy)carbonyl)thiazol-2-yl)piperidine-4-carboxamido)-2,2-dimethylpropanoic Acid] | 8.82
CCN(CCC(=O)N[C@@H](CC(=O)OC(C)(C)C)C(=O)OC(C)(C)C)c1ncc(C(=O)Oc2ccc(C(=N)N)cc2F)s1 [Example 46, Di-tert-butyl(3-((5-((4-carbamimidoyl-2-fluorophenoxy)carbonyl)thiazol-2-yl)(ethyl)amino)propanoyl)-L-aspartate] | 7.40
CCN(CCC(=O)N[C@@H](CC(=O)O)C(=O)O)c1ncc(C(=O)Oc2ccc(C(=N)N)cc2F)s1 [Example 47, (3-((5-((4-Carbamimidoyl-2-fluorophenoxy)carbonyl)thiazol-2-yl)(ethyl)amino)propanoyl)-L-aspartic Acid] | 9.28
CCN(CCC(=O)N[C@H](CCC(=O)OC(C)(C)C)C(=O)OC(C)(C)C)c1ncc(C(=O)Oc2ccc(C(=N)N)cc2F)s1 [Example 48] | 7.43
CCN(CCC(=O)N[C@H](CCC(=O)O)C(=O)O)c1ncc(C(=O)Oc2ccc(C(=N)N)cc2F)s1 [Example 49, (3-((5-((4-Carbamimidoyl-2-fluorophenoxy)carbonyl)thiazol-2-yl)(ethyl)amino)propanoyl)-D-glutamic Acid] | 9.24
CCN(CCC(=O)Nc1ccc(C(=O)OC)cc1)c1ncc(C(=O)Oc2ccc(C(=N)N)cc2F)s1 [Example 50, 4-Carbamimidoyl-2-fluorophenyl 2-(ethyl(3-((4-(methoxycarbonyl)phenyl)amino)-3-oxopropyl)amino)thiazole-5-carboxylate] | 7.85
CCN(CCC(=O)Nc1cccc(C(=O)OC)c1)c1ncc(C(=O)Oc2ccc(C(=N)N)cc2F)s1 [Example 51, 4-Carbamimidoyl-2-fluorophenyl 2-(ethyl(3-((3-(methoxycarbonyl)phenyl)amino)-3-oxopropyl)amino)thiazole-5-carboxylate] | 8.01
CCN(CCC(=O)Nc1ccc(C(=O)OC(C)(C)C)cc1)c1ncc(C(=O)Oc2ccc(C(=N)N)cc2F)s1 [Example 52, 4-Carbamimidoyl-2-fluorophenyl 2-((3-((4-(tert-butoxycarbonyl)phenyl)amino)-3-oxopropyl)(ethyl)amino)thiazole-5-carboxylate] | 7.09
CCN(CCC(=O)Nc1cccc(C(=O)OC(C)(C)C)c1)c1ncc(C(=O)Oc2ccc(C(=N)N)cc2F)s1 [Example 53] | 7.92
CCN(CCC(=O)Nc1cccc(C(=O)O)c1)c1ncc(C(=O)Oc2ccc(C(=N)N)cc2F)s1 [Example 54, 3-(3-((5-((4-Carbamimidoyl-2-fluorophenoxy)carbonyl)thiazol-2-yl)(ethyl)amino)propanamido)benzoic Acid] | 8.60
CCN(CCC(=O)Nc1ccc(C(=O)O)cc1)c1ncc(C(=O)Oc2ccc(C(=N)N)cc2F)s1 [Example 55, 4-(3-((5-((4-Carbamimidoyl-2-fluorophenoxy)carbonyl)thiazol-2-yl)(ethyl)amino)propanamido)benzoic Acid] | 8.09
CC(C)(CNc1nc2ccc(C(=O)Oc3ccc(C(=N)N)cc3F)cc2s1)C(=O)O [Example 56, 3-((6-((4-Carbamimidoyl-2-fluorophenoxy)carbonyl)benzo[d]thiazol-2-yl)amino)-2,2-dimethylpropanoic Acid] | 9.23
COC(=O)C1CCN(c2nc3ccc(C(=O)Oc4ccc(C(=N)N)cc4)cc3s2)CC1 [Example 57, 4-Carbamimidoylphenyl 2-(4-(methoxycarbonyl)piperidin-1-yl)benzo[d]thiazole-6-carboxylate] | 7.89
N=C(N)c1ccc(OC(=O)c2ccc3nc(N4CCC(C(=O)O)CC4)sc3c2)cc1 [Example 58, 1-(6-((4-Carbamimidoylphenoxy)carbonyl)benzo[d]thiazol-2-yl)piperidine-4-carboxylic Acid] | 8.13

The next lines start with the values.

pKi | Compound
7.85 | COC(=O)CCNc1nc2ccc(C(=O)Oc3ccc(C(=N)N)cc3)cc2s1 [Example 59, 4-Carbamimidoylphenyl 2-((3-methoxy-3-oxopropyl)amino)benzo[d]thiazole-6-carboxylate]
8.00 | COC(=O)CCN(C)c1nc2ccc(C(=O)Oc3ccc(C(=N)N)cc3)cc2s1 [Example 60, 4-Carbamimidoylphenyl 2-((3-methoxy-3-oxopropyl)(methyl)amino)benzo[d]thiazole-6-carboxylate]
8.00 | CCN(CCC(=O)OC)c1nc2ccc(C(=O)Oc3ccc(C(=N)N)cc3)cc2s1 [Example 61, 4-Carbamimidoylphenyl 2-(ethyl(3-methoxy-3-oxopropyl)amino)benzo[d]thiazole-6-carboxylate]
8.37 | CN(CCC(=O)O)c1nc2ccc(C(=O)Oc3ccc(C(=N)N)cc3)cc2s1 [Example 62, 3-((6-((4-Carbamimidoylphenoxy)carbonyl)benzo[d]thiazol-2-yl)(methyl)amino)propanoic Acid]
7.89 | COC(=O)CCCN(C)c1nc2ccc(C(=O)Oc3ccc(C(=N)N)cc3)cc2s1 [Example 63, 4-Carbamimidoylphenyl 2-((4-methoxy-4-oxobutyl)(methyl)amino)benzo[d]thiazole-6-carboxylate]
8.19 | CN(CCCC(=O)O)c1nc2ccc(C(=O)Oc3ccc(C(=N)N)cc3)cc2s1 [Example 64, 4-((6-((4-Carbamimidoylphenoxy)carbonyl)benzo[d]thiazol-2-yl)(methyl)amino)butanoic Acid]
8.24 | N=C(N)c1ccc(OC(=O)c2ccc3nc(NCCC(=O)O)sc3c2)cc1 [Example 65, 3-((6-((4-Carbamimidoylphenoxy)carbonyl)benzo[d]thiazol-2-yl)amino)propanoic Acid]
8.32 | CCN(CCC(=O)O)c1nc2ccc(C(=O)Oc3ccc(C(=N)N)cc3)cc2s1 [Example 66, 3-((6-((4-Carbamimidoylphenoxy)carbonyl)benzo[d]thiazol-2-yl)(ethyl)amino)propanoic Acid]
7.72 | COC(=O)C(C)(C)CNc1nc2ccc(C(=O)Oc3ccc(C(=N)N)cc3)cc2s1 [Example 67, 4-Carbamimidoylphenyl 2-((3-methoxy-2,2-dimethyl-3-oxopropyl)amino)benzo[d]thiazole-6-carboxylate]
8.22 | COC(=O)C(C)(C)CN(C)c1nc2ccc(C(=O)Oc3ccc(C(=N)N)cc3)cc2s1 [Example 68, 4-Carbamimidoylphenyl 2-((3-methoxy-2,2-dimethyl-3-oxopropyl)(methyl)amino)benzo[d]thiazole-6-carboxylate]
7.68 | CCN(CC(C)(C)C(=O)OC)c1nc2ccc(C(=O)Oc3ccc(C(=N)N)cc3)cc2s1 [Example 69, 4-Carbamimidoylphenyl 2-(ethyl(3-methoxy-2,2-dimethyl-3-oxopropyl)amino)benzo[d]thiazole-6-carboxylate]
8.46 | CCN(CC(C)(C)C(=O)OC)c1nc2ccc(C(=O)Oc3ccc(C(=N)N)cc3F)cc2s1 [Example 70, 4-Carbamimidoyl-2-fluorophenyl 2-(ethyl(3-methoxy-2,2-dimethyl-3-oxopropyl)amino)benzo[d]thiazole-6-carboxylate]
8.96 | COC(=O)CCCN(C)c1nc2ccc(C(=O)Oc3ccc(C(=N)N)cc3F)cc2s1 [Example 71, 4-Carbamimidoyl-2-fluorophenyl 2-((4-methoxy-4-oxobutyl)(methyl)amino)benzo[d]thiazole-6-carboxylate]
8.89 | COC(=O)CCN(C)c1nc2ccc(C(=O)Oc3ccc(C(=N)N)cc3F)cc2s1 [Example 72, 4-Carbamimidoyl-2-fluorophenyl 2-((3-methoxy-3-oxopropyl)(methyl)amino)benzo[d]thiazole-6-carboxylate]
9.05 | CC(C)(CNc1nc2ccc(C(=O)Oc3ccc(C(=N)N)cc3)cc2s1)C(=O)O [Example 73, 3-((6-((4-Carbamimidoylphenoxy)carbonyl)benzo[d]thiazol-2-yl)amino)-2,2-dimethylpropanoic Acid]
8.05 | CCN(CC(C)(C)C(=O)O)c1nc2ccc(C(=O)Oc3ccc(C(=N)N)cc3)cc2s1 [Example 74, 3-((6-((4-Carbamimidoylphenoxy)carbonyl)benzo[d]thiazol-2-yl)(ethyl) Amino)-2,2-dimethylpropanoic Acid]
9.15 | CCN(CC(C)(C)C(=O)O)c1nc2ccc(C(=O)Oc3ccc(C(=N)N)cc3F)cc2s1 [Example 75, 3-((6-((4-Carbamimidoyl-2-fluorophenoxy)carbonyl)benzo[d]thiazol-2-yl)(ethyl)amino)-2,2-dimethyl Propanoic Acid]
9.24 | CN(CCCC(=O)O)c1nc2ccc(C(=O)Oc3ccc(C(=N)N)cc3F)cc2s1 [Example 76, 4-((6-((4-Carbamimidoyl-2-fluorophenoxy)carbonyl)benzo[d]thiazol-2-yl)(methyl)amino)butanoic Acid]
